The results in this text go back to ChEMBL document CHEMBL1201862, “PubChem BioAssay data set” (2004).

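Tested at 5 concentrations; 48 h exposure; 96-well plates; endpoints linearly interpolated, else capped at highest concentration. Here, GI50 denotes the concentration required for 50% inhibition of growth.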 Active and inactive are the calls of the source. Rule as the data show it: active = GI50 up to about 1.1 µM and inactive = higher. Where only a bound is given, the exact number is not on record here.

Test systems include HL-60; SK-OV-3; HCC 2998; HCT-15; COLO 205; OVCAR-5; A549; UO-31; SF-268; HCT-116; SNB-19; MOLT-4; RPMI-8226; HOP-62; SF-295; UACC-257; CCRF-CEM; K562; KM12; NCI-H226.
What all share (experiment): NCI tumour cell line growth inhibition, 48 h

As to `N#C/C(=C1/Sc2c(nc[nH]c2=O)N1c1ccccc1)c1nc2ccccc2[nH]1`, the GI50 with HL-60 was > 100 µM (inactive); in the assay with SK-OV-3 it was > 100 µM (inactive); in the assay on HCC 2998, > 100 µM (inactive); in the assay on HCT-15, greater than 100 µM; with COLO 205, > 100 µM (inactive); with OVCAR-5, > 100 µM (inactive). Further, the GI50 in the assay on A549, with UO-31, with SF-268, with HCT-116, in the assay with SNB-19 and in the assay with MOLT-4 was > 100 µM (inactive) throughout. The GI50 with RPMI-8226, in the assay with HOP-62, in the assay with SF-295, with UACC-257, in the assay with CCRF-CEM and in the assay on K562 was > 100 µM (inactive) each time. Besides, in the assay on KM12, the GI50 is > 100 µM (inactive).
For the compound `c1ccc2c(c1)CCCC/C2=N/OCC1CO1` (centres undefined), the GI50 with HL-60 was 21.4 µM (inactive); with HCC 2998 it was > 100 µM (inactive); with HCT-15 it was greater than 100 µM; in the assay on COLO 205 it was 48.8 µM (inactive); with A549, 56.4 µM (inactive); in the assay on UO-31 it was < 0.01 µM (active). Moreover, the GI50 in the assay on NCI-H226 was 35.3 µM (inactive); with SF-268, 58.3 µM (inactive); in the assay on HCT-116, 45 µM (inactive); in the assay with MOLT-4, 32.1 µM (inactive); in the assay with RPMI-8226, 30.3 µM (inactive); with SF-295, 58.7 µM (inactive). For the same compound, the GI50 with UACC-257 is 46.5 µM (inactive); in the assay with CCRF-CEM, 46.5 µM (inactive); in the assay with K562 it was 41.2 µM (inactive); in the assay with KM12, 35.9 µM (inactive).
As to `O=C(Nc1c(C(=O)NC2CCCCC2)[nH]c(=O)[nH]c1=O)c1ccc(Cl)cc1`, the GI50 in the assay on HL-60 is > 100 µM (inactive); in the assay on SK-OV-3 it was > 100 µM (inactive); with HCT-15 it was greater than 100 µM; in the assay on COLO 205 it was > 100 µM (inactive); in the assay on OVCAR-5 it was > 100 µM (inactive); with A549, > 100 µM (inactive). Besides, the GI50 with UO-31 was > 100 µM (inactive); in the assay on NCI-H226 it was > 100 µM (inactive); in the assay on SF-268, > 100 µM (inactive); with HCT-116 it was > 100 µM (inactive); in the assay on SNB-19, < 0.01 µM (active); in the assay with MOLT-4 it was > 100 µM (inactive). In addition, the GI50 with RPMI-8226 was > 100 µM (inactive); with HOP-62, > 100 µM (inactive); with SF-295, > 100 µM (inactive); in the assay with CCRF-CEM, > 100 µM (inactive); in the assay on K562 it was > 100 µM (inactive); with KM12, 49.3 µM (inactive).
Turning to `COc1ccc(-c2c3c(nc4nc(SCCc5ccccc5)nc(N)c24)CCCC3)cc1OC`, the GI50 in the assay with HL-60 is > 100 µM (inactive); with SK-OV-3, > 100 µM (inactive); with HCT-15, greater than 100 µM; with COLO 205, > 100 µM (inactive); in the assay with OVCAR-5, > 100 µM (inactive); with A549, > 100 µM (inactive). Further, the GI50 with UO-31, with SF-268, in the assay with HCT-116, with SNB-19, with MOLT-4 and in the assay on RPMI-8226 was > 100 µM (inactive) throughout. The GI50 is 90.8 µM (inactive) with HOP-62; 22.7 µM (inactive) in the assay on SF-295; > 100 µM (inactive) with UACC-257; > 100 µM (inactive) in the assay on CCRF-CEM; > 100 µM (inactive) in the assay with K562; > 100 µM (inactive) in the assay on KM12.
On to `CC1CN=C(N(C(=O)Nc2ccccc2)C2CCCCC2)S1` (centres undefined), for which the GI50 was 14.8 µM (inactive) in the assay on HL-60; 31.3 µM (inactive) in the assay with SK-OV-3; 18.3 µM (inactive) with HCC 2998; 14.4 µM with HCT-15; 19 µM (inactive) with COLO 205; 14.7 µM (inactive) in the assay with OVCAR-5. Further, the GI50 is 16.7 µM (inactive) with A549; 17.3 µM (inactive) in the assay on UO-31; 17.6 µM (inactive) in the assay with SF-268; 16.7 µM (inactive) with HCT-116; 29.2 µM (inactive) with SNB-19; 16.7 µM (inactive) in the assay on MOLT-4. The GI50 is 18.8 µM (inactive) in the assay with RPMI-8226; 41.2 µM (inactive) with HOP-62; 16.7 µM (inactive) in the assay on SF-295; 16 µM (inactive) in the assay on UACC-257; 20.7 µM (inactive) in the assay on CCRF-CEM; 22.5 µM (inactive) in the assay on K562. Further, the GI50 in the assay with KM12 is 16.1 µM (inactive).
For the compound `CC[C@]12C=CCN3CC[C@@]4(c5cc(Br)c(OC)c([N+](=O)[O-])c5N(C)[C@H]4[C@@](O)(C(=O)OC)[C@@H]1OC(C)=O)[C@@H]32`, the GI50 is 33.7 µM (inactive) with HL-60; > 100 µM (inactive) in the assay with SK-OV-3; 65.3 µM in the assay on HCT-15; 27.8 µM (inactive) in the assay with COLO 205; > 100 µM (inactive) in the assay on OVCAR-5; 39.8 µM (inactive) with A549. Also, the GI50 in the assay with UO-31 was 89.5 µM (inactive); in the assay with NCI-H226 it was 21.8 µM (inactive); in the assay on SF-268 it was 30.1 µM (inactive); in the assay on HCT-116, 45.8 µM (inactive); in the assay with SNB-19, 71.9 µM (inactive); in the assay on MOLT-4, 13.2 µM (inactive). Besides, the GI50 with RPMI-8226 is 6.52 µM (inactive); in the assay with HOP-62 it was 87.5 µM (inactive); in the assay with SF-295, 37 µM (inactive); in the assay with UACC-257, 33.3 µM (inactive); in the assay with CCRF-CEM, 24.7 µM (inactive); in the assay on K562 it was 0.443 µM (active). Moreover, the GI50 in the assay with KM12 was 47.6 µM (inactive).
As to `Cc1ccc(NC(=O)C(Cc2c[nH]c3ccccc23)NC(=O)Oc2ccccc2)cc1C` (centres undefined), the GI50 is 40.6 µM (inactive) in the assay on HL-60; > 100 µM (inactive) with SK-OV-3; 62.4 µM with HCT-15; 50.4 µM (inactive) with COLO 205; > 100 µM (inactive) in the assay on OVCAR-5; 66.4 µM (inactive) with A549. Further, the GI50 is 77.6 µM (inactive) with UO-31; 73.1 µM (inactive) with NCI-H226; 50.7 µM (inactive) with SF-268; 61.5 µM (inactive) in the assay with HCT-116; > 100 µM (inactive) with SNB-19; 57.5 µM (inactive) in the assay on MOLT-4. In addition, the GI50 in the assay with RPMI-8226 was 26.7 µM (inactive); in the assay on HOP-62, > 100 µM (inactive); with SF-295, > 100 µM (inactive); in the assay on UACC-257 it was > 100 µM (inactive); in the assay on CCRF-CEM it was 35.1 µM (inactive); with K562 it was 59 µM (inactive). Besides, the GI50 with KM12 was 23.8 µM (inactive).
Consider `Cc1cccc(C(C)C)c1NC(=O)/C(Cc1c([N+](=O)[O-])cccc1[N+](=O)[O-])=N/NC(=O)CC#N`, for which the GI50 in the assay on HL-60 is > 100 µM (inactive); in the assay with SK-OV-3, > 100 µM (inactive); with HCC 2998, > 100 µM (inactive); in the assay on HCT-15, greater than 100 µM; with COLO 205, > 100 µM (inactive); with OVCAR-5, > 100 µM (inactive). Besides, the GI50 in the assay with A549, in the assay with UO-31, in the assay with NCI-H226, in the assay with SF-268, in the assay on HCT-116 and in the assay on SNB-19 was > 100 µM (inactive) throughout. Moreover, the GI50 with MOLT-4, in the assay on SF-295, in the assay on CCRF-CEM, with K562 and in the assay on KM12 was > 100 µM (inactive) in each case.
With `Cc1cc2cc3c(C)cc(=O)oc3c(C)c2o1` [TRIOXSALEN], the GI50 is > 100 µM (inactive) in the assay on HL-60; > 100 µM (inactive) in the assay on HCC 2998; greater than 100 µM in the assay with HCT-15; > 100 µM (inactive) in the assay with COLO 205; > 100 µM (inactive) in the assay with OVCAR-5; > 100 µM (inactive) in the assay on A549. Besides, the GI50 in the assay on UO-31, in the assay on NCI-H226, in the assay on SF-268, in the assay on HCT-116, in the assay with SNB-19 and in the assay on MOLT-4 was > 100 µM (inactive) throughout. Moreover, the GI50 in the assay on RPMI-8226, in the assay on HOP-62, in the assay on SF-295, in the assay with UACC-257, in the assay on CCRF-CEM and in the assay with K562 was > 100 µM (inactive) each time. For the same compound, the GI50 with KM12 was > 100 µM (inactive).
Turning to `CCOC(=O)NC(OCc1ccccc1)(C(=O)OC)C(F)(F)F` (centres undefined), the GI50 in the assay with HL-60 was > 100 µM (inactive); with SK-OV-3, > 100 µM (inactive); in the assay with HCC 2998, > 100 µM (inactive); in the assay on HCT-15 it was greater than 100 µM; in the assay with COLO 205 it was > 100 µM (inactive); in the assay with OVCAR-5 it was > 100 µM (inactive). Besides, the GI50 in the assay on A549, in the assay with UO-31, with SF-268, in the assay on HCT-116, in the assay with SNB-19 and in the assay with MOLT-4 was > 100 µM (inactive) each time. The GI50 with RPMI-8226, with SF-295, in the assay on UACC-257, in the assay on CCRF-CEM, in the assay on K562 and in the assay on KM12 was > 100 µM (inactive) in each case.
For `C=C1[C@@H]2CCC(C)(C)[C@H]1CCC(=O)[C@@H]2C(=O)OC`, the GI50 is > 100 µM (inactive) in the assay on HL-60; > 100 µM (inactive) with HCC 2998; greater than 100 µM with HCT-15; > 100 µM (inactive) with COLO 205; > 100 µM (inactive) with A549; > 100 µM (inactive) in the assay with UO-31. For the same compound, the GI50 with NCI-H226, with SF-268, in the assay on HCT-116, with SNB-19, with MOLT-4 and in the assay on RPMI-8226 was > 100 µM (inactive) in each case. Further, the GI50 in the assay with HOP-62, in the assay with SF-295, with UACC-257, in the assay on CCRF-CEM and with K562 was > 100 µM (inactive) in each case.
